We go through one molecule from publication PMC5218480 (PLoS ONE, 2017).

The experiment relates to MV-4-11 cells. As to the kind of experiment: Gene expression microarray analysis (Affymetrix PrimeView) and GSEA. The experiment is classed as cell-based, human. On the set-up: RFU PODN (11730768_x_at) / Fold change /veh PODN (11730768_x_at) / RFU LINC00158 (11744669_a_at) / Fold change /veh LINC00158 (11744669_a_at) / RFU DUSP10 (11751237_a_at) / Fold change /veh DUSP10 (11751237_a_at) / RFU ID3 (11757404_x_at) / Fold change /veh ID3 (11757404_x_at) / RFU PLEKHG5 (11737974_s_at) / Fold change /veh PLEKHG5 (11737974_s_at) / RFU LRRC4B (11730491_at) / Fold change /veh LRRC4B (11730491_at) / RFU GIMAP4 (11747438_a_at) / Fold change /veh GIMAP4 (11747438_a_at) / RFU KRT8 (11758183_x_at) / Fold change /veh KRT8 (11758183_x_at) / RFU CNN1 (11734310_a_at) / Fold change /veh CNN1 (11734310_a_at) / RFU VPS37D (11726825_at) / Fold change /veh VPS37D (11726825_at) / RFU C10orf10 (11716522_x_at) / Fold change /veh C10orf10 (11716522_x_at) / RFU KIR2DL2 /// KIR2DL4 /// KIR2DL5A /// KIR2DL5B /// KIR2DS1 /// KIR2DS2 /// KIR2DS3 /// KIR2DS4 /// KIR3DL3 /// KIR3DL3 /// KIR3DS1 (11738374_at) / Fold change /veh KIR2DL2 /// KIR2DL4 /// KIR2DL5A /// KIR2DL5B /// KIR2DS1 /// KIR2DS2 /// KIR2DS3 /// KIR2DS4 /// KIR3DL3 /// KIR3DL3 /// KIR3DS1 (11738374_at) / RFU C1QL1 (11718748_at) / Fold change /veh C1QL1 (11718748_at) / RFU TMPRSS4 (11747572_a_at) / Fold change /veh TMPRSS4 (11747572_a_at) / RFU HAMP (11756126_x_at) / Fold change /veh HAMP (11756126_x_at) / RFU RNFT2 (11725882_a_at) / Fold change /veh RNFT2 (11725882_a_at) / RFU NR4A2 (11747474_a_at) / Fold change /veh NR4A2 (11747474_a_at) / RFU ABCC12 (11746883_a_at) / Fold change /veh ABCC12 (11746883_a_at) / RFU TMEM136 (11760407_x_at) / Fold change /veh TMEM136 (11760407_x_at) / RFU CLDN22 /// WWC2 (11732394_at) / Fold change /veh CLDN22 /// WWC2 (11732394_at) / RFU HLA-DPB1 (11760878_x_at) / Fold change /veh HLA-DPB1 (11760878_x_at) / RFU SPINT1 (11716480_a_at) / Fold change /veh SPINT1 (11716480_a_at) / RFU GAP43 (11754022_s_at) / Fold change /veh GAP43 (11754022_s_at) / RFU A4GNT (11735810_at) / Fold change /veh A4GNT (11735810_at) / RFU PRB3 (11715151_x_at) / Fold change /veh PRB3 (11715151_x_at) / RFU TUBB4B (11761932_at) / Fold change /veh TUBB4B (11761932_at) / RFU CAPN14 (11732068_a_at) / Fold change /veh CAPN14 (11732068_a_at) / RFU TMCC2 (11721928_a_at) / Fold change /veh TMCC2 (11721928_a_at) / RFU IRGQ (11745062_a_at) / Fold change /veh IRGQ (11745062_a_at) / RFU FAM174B (11720279_a_at) / Fold change /veh FAM174B (11720279_a_at) / RFU TMPRSS4 (11748680_a_at) / Fold change /veh TMPRSS4 (11748680_a_at) / RFU FAM212B (11763350_a_at) / Fold change /veh FAM212B (11763350_a_at) / RFU PLEKHG5 (11743358_a_at) / Fold change /veh PLEKHG5 (11743358_a_at) / RFU ZSCAN30 (11745921_a_at) / Fold change /veh ZSCAN30 (11745921_a_at) / RFU CMKLR1 (11741424_a_at) / Fold change /veh CMKLR1 (11741424_a_at) / RFU LOC101060620 /// MAPK8IP1 (11723275_at) / Fold change /veh LOC101060620 /// MAPK8IP1 (11723275_at) / RFU SPTSSB (11747773_x_at) / Fold change /veh SPTSSB (11747773_x_at) / RFU PRSS12 (11739890_at) / Fold change /veh PRSS12 (11739890_at) / RFU BIN1 (11741810_x_at) / Fold change /veh BIN1 (11741810_x_at) / RFU WNT11 (11732464_a_at) / Fold change /veh WNT11 (11732464_a_at) / RFU C10orf10 (11716521_a_at) / Fold change /veh C10orf10 (11716521_a_at) / RFU C5orf56 (11738089_at) / Fold change /veh C5orf56 (11738089_at) / RFU CYB561 (11721691_x_at) / Fold change /veh CYB561 (11721691_x_at) / RFU ANKRD19P (11752326_a_at) / Fold change /veh ANKRD19P (11752326_a_at) / RFU OR2T12 /// OR2T33 /// OR2T8 (11738714_s_at) / Fold change /veh OR2T12 /// OR2T33 /// OR2T8 (11738714_s_at) / RFU VCAN (11748164_a_at) / Fold change /veh VCAN (11748164_a_at) / RFU JSRP1 (11732532_at) / Fold change /veh JSRP1 (11732532_at) / RFU KRTAP10-11 (11738290_x_at) / Fold change /veh KRTAP10-11 (11738290_x_at) / RFU MYO3A (11730013_a_at) / Fold change /veh MYO3A (11730013_a_at) / RFU EBF3 (11725865_a_at) / Fold change /veh EBF3 (11725865_a_at) / RFU CAMK2N1 (11719241_x_at) / Fold change /veh CAMK2N1 (11719241_x_at) / RFU C5orf56 (11738088_a_at) / Fold change /veh C5orf56 (11738088_a_at) / RFU OLFML3 (11715873_a_at) / Fold change /veh OLFML3 (11715873_a_at) / RFU LOC100653217 /// NTM (11731650_a_at) / Fold change /veh LOC100653217 /// NTM (11731650_a_at) / RFU MAPK11 (11762145_a_at) / Fold change /veh MAPK11 (11762145_a_at) / RFU FIZ1 (11724087_x_at) / Fold change /veh FIZ1 (11724087_x_at) / RFU OASL (11726364_x_at) / Fold change /veh OASL (11726364_x_at) / RFU SOX15 (11748057_x_at) / Fold change /veh SOX15 (11748057_x_at) / RFU CD79A (11719716_a_at) / Fold change /veh CD79A (11719716_a_at) / RFU HIST1H1D (11736915_at) / Fold change /veh HIST1H1D (11736915_at) / RFU CASKIN2 (11723855_a_at) / Fold change /veh CASKIN2 (11723855_a_at) / RFU LOC730098 (11760151_x_at) / Fold change /veh LOC730098 (11760151_x_at) / RFU OR4N2 (11742367_at) / Fold change /veh OR4N2 (11742367_at) / RFU PRRT2 (11749266_a_at) / Fold change /veh PRRT2 (11749266_a_at) / RFU SNX32 (11753110_a_at) / Fold change /veh SNX32 (11753110_a_at) / RFU CDHR5 (11726645_a_at) / Fold change /veh CDHR5 (11726645_a_at) / RFU RCAN1 (11760418_a_at) / Fold change /veh RCAN1 (11760418_a_at) / RFU FAM167A (11723789_a_at) / Fold change /veh FAM167A (11723789_a_at) / RFU FAM26E (11764081_at) / Fold change /veh FAM26E (11764081_at) / RFU ISYNA1 (11749810_s_at) / Fold change /veh ISYNA1 (11749810_s_at) / RFU ACY1 (11761880_at) / Fold change /veh ACY1 (11761880_at) / RFU 11764098_at / Fold change /veh 11764098_at / RFU SAMD14 (11745864_x_at) / Fold change /veh SAMD14 (11745864_x_at) / RFU NPB (11741838_a_at) / Fold change /veh NPB (11741838_a_at) / RFU TMPRSS6 (11731388_a_at) / Fold change /veh TMPRSS6 (11731388_a_at) / RFU KRTAP10-2 (11738614_at) / Fold change /veh KRTAP10-2 (11738614_at) / RFU ARHGAP8 /// PRR5-ARHGAP8 (11727945_x_at) / Fold change /veh ARHGAP8 /// PRR5-ARHGAP8 (11727945_x_at) / RFU KRTAP5-7 /// NADSYN1 (11734609_at) / Fold change /veh KRTAP5-7 /// NADSYN1 (11734609_at) / RFU RASL12 (11751679_a_at) / Fold change /veh RASL12 (11751679_a_at) / RFU CDKN2B (11736163_a_at) / Fold change /veh CDKN2B (11736163_a_at) / RFU PRF1 (11729649_at) / Fold change /veh PRF1 (11729649_at) / RFU, ZNF638 /// ZNF638-IT1 / Fold change vs veh, ZNF638 /// ZNF638-IT1 / RFU, PANK3 / Fold change vs veh, PANK3 / RFU, SH3YL1 / Fold change vs veh, SH3YL1 / RFU, ZEB2 / Fold change vs veh, ZEB2 / RFU, NRIP1 / Fold change vs veh, NRIP1 / RFU, PTTG1IP / Fold change vs veh, PTTG1IP / RFU, CAPN2 / Fold change vs veh, CAPN2 / RFU, MED14 / Fold change vs veh, MED14 / RFU, SNORA58 / Fold change vs veh, SNORA58 / RFU, C1orf63 / Fold change vs veh, C1orf63 / RFU, LRRFIP1 / Fold change vs veh, LRRFIP1 / RFU, NDUFAF7 / Fold change vs veh, NDUFAF7 / RFU, SLC12A2 / Fold change vs veh, SLC12A2 / RFU, IBTK / Fold change vs veh, IBTK / RFU, ESF1 / Fold change vs veh, ESF1 / Fold change vs veh, TMEM50B / RFU, TAOK1 / Fold change vs veh, TAOK1 / RFU, ACBD3 / Fold change vs veh, ACBD3 / RFU, TMA16 / Fold change vs veh, TMA16 / RFU, RWDD3 / Fold change vs veh, RWDD3 / RFU, BCAT1 / Fold change vs veh, BCAT1 / RFU, EDEM3 / Fold change vs veh, EDEM3 / RFU, TMEM33 / Fold change vs veh, TMEM33 / RFU, WDR75 / Fold change vs veh, WDR75 / RFU, AHCTF1 / Fold change vs veh, AHCTF1 / RFU, TFRC / Fold change vs veh, TFRC / RFU, ZDHHC17 / Fold change vs veh, ZDHHC17 / RFU, NOM1 / Fold change vs veh, NOM1 / RFU, ARL8B / Fold change vs veh, ARL8B / RFU, ZBTB11 / Fold change vs veh, ZBTB11 / RFU, TAMM41 / Fold change vs veh, TAMM41 / RFU, KIAA1704 /// LOC100996395 / Fold change vs veh, KIAA1704 /// LOC100996395 / RFU, ING1 / Fold change vs veh, ING1 / RFU, TRMT61B / Fold change vs veh, TRMT61B / RFU, FUBP3 / Fold change vs veh, FUBP3 / RFU, TP53 / Fold change vs veh, TP53 / RFU, TNKS2 / Fold change vs veh, TNKS2 / RFU, ZFP14 / Fold change vs veh, ZFP14 / RFU, ACTR2 / Fold change vs veh, ACTR2 / RFU, PPP3R1 / Fold change vs veh, PPP3R1 / RFU, PIK3R1 / Fold change vs veh, PIK3R1 / RFU, HNRNPA1 / Fold change vs veh, HNRNPA1 / RFU, RNF170 / Fold change vs veh, RNF170 / RFU, ZNF28 / Fold change vs veh, ZNF28 / RFU, RNGTT / Fold change vs veh, RNGTT / RFU, OGT / Fold change vs veh, OGT / RFU, BRD1 / Fold change vs veh, BRD1 / RFU, MARS / Fold change vs veh, MARS / RFU, ZNF655 / Fold change vs veh, ZNF655 / RFU, FAHD1 / Fold change vs veh, FAHD1 / RFU, BDP1 / Fold change vs veh, BDP1 / RFU, LRRCC1 / Fold change vs veh, LRRCC1 / RFU, ARID1A / Fold change vs veh, ARID1A / RFU, ZNF146 / Fold change vs veh, ZNF146 / RFU, ZNF330 / Fold change vs veh, ZNF330 / RFU, GPN3 / Fold change vs veh, GPN3 / RFU, C9orf123 / Fold change vs veh, C9orf123 / RFU, N4BP2L2 / Fold change vs veh, N4BP2L2 / RFU, ARFIP1 / Fold change vs veh, ARFIP1 / RFU, FAM179B / Fold change vs veh, FAM179B / RFU, BCL10 / Fold change vs veh, BCL10 / RFU, UHRF1BP1L / Fold change vs veh, UHRF1BP1L / RFU, BET1 / Fold change vs veh, BET1 / RFU, CNOT2 / Fold change vs veh, CNOT2 / RFU, ZNF268 / Fold change vs veh, ZNF268 / Fold change vs veh, ZNF507 / RFU, DGCR2 / Fold change vs veh, DGCR2 / RFU, WDSUB1 / Fold change vs veh, WDSUB1 / Fold change vs veh, HSP90B1 /// MIR3652 / RFU, ADSS / Fold change vs veh, ADSS / RFU, GK / Fold change vs veh, GK / RFU, ZNF148 / Fold change vs veh, ZNF148 / RFU, TAF9 / Fold change vs veh, TAF9 / RFU, SLC1A5 / Fold change vs veh, SLC1A5 / RFU, SLMO2 / Fold change vs veh, SLMO2 / RFU, ABCC4 / Fold change vs veh, ABCC4 / RFU, LOC101060439 /// RAP1B / Fold change vs veh, LOC101060439 /// RAP1B / RFU, RFX7 / Fold change vs veh, RFX7 / RFU, GTPBP10 / Fold change vs veh, GTPBP10 / RFU, CNEP1R1 / Fold change vs veh, CNEP1R1 / RFU, BIVM-ERCC5 /// ERCC5 / Fold change vs veh, BIVM-ERCC5 /// ERCC5 / RFU, ILF3 / Fold change vs veh, ILF3 / RFU 11762660_at / Fold change /veh 11762660_at / RFU VCAN (11757783_s_at) / Fold change /veh VCAN (11757783_s_at) / RFU DDX43 (11728927_at) / Fold change /veh DDX43 (11728927_at) / RFU KRT8 (11758188_x_at) / Fold change /veh KRT8 (11758188_x_at) / RFU NKD1 (11759106_at) / Fold change /veh NKD1 (11759106_at) / RFU SRD5A1 (11742802_a_at) / Fold change /veh SRD5A1 (11742802_a_at) / RFU TPSAB1 /// TPSB2 (11721975_s_at) / Fold change /veh TPSAB1 /// TPSB2 (11721975_s_at) / RFU GSTM3 (11746129_a_at) / Fold change /veh GSTM3 (11746129_a_at) / RFU IL23R (11737362_x_at) / Fold change /veh IL23R (11737362_x_at) / RFU TMEM51 (11727254_a_at) / Fold change /veh TMEM51 (11727254_a_at) / RFU PIWIL2 (11732686_x_at) / Fold change /veh PIWIL2 (11732686_x_at) / RFU ORM1 (11744905_x_at) / Fold change /veh ORM1 (11744905_x_at) / RFU CCDC152 (11743942_at) / Fold change /veh CCDC152 (11743942_at) / RFU ECM1 (11717891_a_at) / Fold change /veh ECM1 (11717891_a_at) / RFU IL23R (11748794_a_at) / Fold change /veh IL23R (11748794_a_at) / RFU TNFAIP8L3 (11732012_x_at) / Fold change /veh TNFAIP8L3 (11732012_x_at) / RFU MBOAT4 (11741988_at) / Fold change /veh MBOAT4 (11741988_at) / RFU 11764193_at / Fold change /veh 11764193_at / RFU TMEM53 (11763286_at) / Fold change /veh TMEM53 (11763286_at) / RFU MAGEB2 (11727129_at) / Fold change /veh MAGEB2 (11727129_at) / RFU TMEM200A (11744735_a_at) / Fold change /veh TMEM200A (11744735_a_at) / RFU CCDC152 (11751479_a_at) / Fold change /veh CCDC152 (11751479_a_at) / RFU FAM211A (11726209_a_at) / Fold change /veh FAM211A (11726209_a_at) / RFU RGS16 (11746705_a_at) / Fold change /veh RGS16 (11746705_a_at) / RFU VCAN (11755009_s_at) / Fold change /veh VCAN (11755009_s_at) / RFU RHOB (11743442_s_at) / Fold change /veh RHOB (11743442_s_at) / RFU RGS16 (11720943_a_at) / Fold change /veh RGS16 (11720943_a_at) / RFU RGS16 (11720944_at) / Fold change /veh RGS16 (11720944_at) / RFU, VPS4B / Fold change vs veh, VPS4B / RFU, CREB1 / Fold change vs veh, CREB1 / RFU, DNAJC13 / Fold change vs veh, DNAJC13 / RFU, GNAQ / Fold change vs veh, GNAQ / RFU, CDK5R1 / Fold change vs veh, CDK5R1 / RFU, ZRANB3 / Fold change vs veh, ZRANB3 / RFU, CUL4A / Fold change vs veh, CUL4A / RFU, CCNY / Fold change vs veh, CCNY / RFU, UFL1 / Fold change vs veh, UFL1 / RFU, COG3 / Fold change vs veh, COG3 / RFU, DIAPH2 / Fold change vs veh, DIAPH2 / RFU, SKA2 / Fold change vs veh, SKA2 / RFU, AFF3 / Fold change vs veh, AFF3 / RFU, LMF1 / Fold change vs veh, LMF1 / RFU, IPO11 / Fold change vs veh, IPO11 / RFU, DFFB / Fold change vs veh, DFFB / RFU, FOXP1 / Fold change vs veh, FOXP1 / RFU, CARD8 / Fold change vs veh, CARD8 / RFU, STRN3 / Fold change vs veh, STRN3 / RFU, ADK / Fold change vs veh, ADK / RFU, RASSF2 / Fold change vs veh, RASSF2 / RFU, WIPF1 / Fold change vs veh, WIPF1 / RFU, LARP1B / Fold change vs veh, LARP1B / RFU, RASA1 / Fold change vs veh, RASA1 / RFU, RB1 / Fold change vs veh, RB1 / RFU, PPFIA1 / Fold change vs veh, PPFIA1 / RFU, MAT2A / Fold change vs veh, MAT2A / RFU, CCT5 / Fold change vs veh, CCT5 / RFU, WDR92 / Fold change vs veh, WDR92 / RFU, CUX1 / Fold change vs veh, CUX1 / RFU, TTC7A / Fold change vs veh, TTC7A / RFU, TMEM135 / Fold change vs veh, TMEM135 / RFU, DEPTOR / Fold change vs veh, DEPTOR / RFU, CPM / Fold change vs veh, CPM / RFU, DNAJB6 / Fold change vs veh, DNAJB6 / RFU, CACNA2D3 / Fold change vs veh, CACNA2D3 / RFU, DTX4 / Fold change vs veh, DTX4 / RFU, TFCP2 / Fold change vs veh, TFCP2 / RFU, GMCL1 /// GMCL1P1 / Fold change vs veh, GMCL1 /// GMCL1P1 / RFU, AEBP2 / Fold change vs veh, AEBP2 / RFU, SNHG1 /// SNORD22 /// SNORD25 /// SNORD26 /// SNORD27 /// SNORD28 /// SNORD29 /// SNORD31 / Fold change vs veh, SNHG1 /// SNORD22 /// SNORD25 /// SNORD26 /// SNORD27 /// SNORD28 /// SNORD29 /// SNORD31 / Fold change (Aza/veh), C12orf56 (ProbeSet 11735607_a_at) / Fold change (ACY-1035/veh), C12orf56 (ProbeSet 11735607_a_at) / Fold change (Aza/veh), FGFR1OP (ProbeSet 11751329_s_at) / Fold change (ACY-1035/veh), FGFR1OP (ProbeSet 11751329_s_at) / Fold change (Aza/veh), VPS36 (ProbeSet 11739960_a_at) / Fold change (ACY-1035/veh), VPS36 (ProbeSet 11739960_a_at) / RFU SYPL1 (11715823_x_at) / Fold change /veh SYPL1 (11715823_x_at) / RFU IGFBP7 (11715501_s_at) / Fold change /veh IGFBP7 (11715501_s_at) / RFU REEP3 (11722064_at) / Fold change /veh REEP3 (11722064_at) / RFU IGLL1 (11728026_x_at) / Fold change /veh IGLL1 (11728026_x_at): dose or concentration left out as unconfirmed. To be noted: MV-4-11 cells, 48 hours.

Turning to `Nc1ccc(-c2cccs2)cc1NC(=O)c1ccc2c(c1)cc(C1CC1)n2CCN1CCOCC1` [ACY-1035], the “RFU ISYNA1 (11749810_s_at)” value was determined as 21.49 RFU.
